This passage reports IC50 and EC50 results from US20240327351A1, “AMIDE AND ETHER SUBSTITUTED N-(1H-INDOL-7-YL)BENZENESULFONAMIDES AND USES THEREOF” (TRIANA BIOMEDICINES, INC., priority 2021, published 2024).

One test has as its target DCAF15 (Homo sapiens, UniProt Q66K64). As to the kind of experiment: HTRF competition assay, binary interaction between compounds and DCAF15. Format: binding. To be noted: competition with Alexa Fluor 647 tracer, His-tagged DCAF15 complex. The gist of the method:
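Compounds, 3-fold serially diluted in DMSO, competed with an Alexa Fluor 647 tracer (612 nM, 2.04× stock) for His-tagged DCAF15 complex (32 nM, 4× stock) premixed 15 min with anti-6His-Eu cryptate. Buffer was 25 mM HEPES pH 7.5, 100 mM NaCl, 0.5 mM TCEP. After 1 h at RT, the 615/666 nm ratio gave titration curves.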

The target in another test is DCAF15/RBM39 (Homo sapiens, UniProt Q14498+Q66K64). As to the kind of experiment: AlphaLISA compound-induced DCAF15-RBM39 ternary complex formation. Format: binding. To be noted: His-tagged DCAF15 complex and biotin-carrying RBM39. The method in brief: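 Compounds, serially diluted 3-fold from 2 mM DMSO stocks, were incubated 1 h at room temperature with His-tagged DCAF15 complex and biotinylated RBM39 (mixture at 408 nM each, 2.04×). The buffer was 50 mM HEPES pH 7.5, 100 mM NaCl, 2 mM MgCl2, 2 mM TCEP. Ni-chelate acceptor and streptavidin donor beads were added sequentially (1–2 h each), and the AlphaLISA signal was titrated.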
(In general: Bead proximity is the source of the signal in Alpha formats.)

In the case of `CC(C)C(=O)Nc1cccc(CNC(=O)c2cccc(S(=O)(=O)Nc3ccc(Cl)c4c(Cl)c[nH]c34)c2F)c1` [Compound 168], at DCAF15, the concentration for half-maximal inhibition (IC50) was in the range of 1 to 10 µM. The EC50 on DCAF15/RBM39 was 1 to 10 µM.

Consider `CN1CC[C@@H](c2ccc(F)cc2)[C@H](COc2ccc(S(=O)(=O)Nc3ccc(Cl)c4c(Cl)c[nH]c34)cc2)C1` [Compound 42], for which, on DCAF15, the IC50 fell in the range of 1 to 10 µM. The same compound gave an EC50 at DCAF15/RBM39 of 1 to 10 µM.

As for `CN1CCN(CCCOc2cccc(S(=O)(=O)Nc3ccc(Cl)c4c(Cl)c[nH]c34)c2)CC1` [Compound 104], on DCAF15, the concentration for half-maximal inhibition (IC50) is 10 to 100 µM. The compound also registered an EC50 at DCAF15/RBM39 below 1 µM.

For the compound `Cc1cc(CNC(=O)c2ccc(S(=O)(=O)Nc3ccc(Cl)c4c(Cl)c[nH]c34)c(F)c2)nn1C` [Compound 175], on DCAF15, the IC50 lay within 1 to 10 µM. For the same compound, on DCAF15/RBM39, the concentration for a half-maximal effect (EC50) was below 1 µM.

Regarding `CCS(=O)(=O)CCNC(=O)c1cccc(S(=O)(=O)Nc2ccc(Cl)c3c(Cl)c[nH]c23)c1F` [Compound 190], the half-maximal inhibitory concentration (IC50) at DCAF15 is 1 to 10 µM. The compound further showed a 50% effective concentration (EC50) on DCAF15/RBM39 below 1 µM.

`CN1CC(CCNC(=O)c2ccc(S(=O)(=O)Nc3ccc(Cl)c4c(Cl)c[nH]c34)c(F)c2)C1` [Compound 193] showed a half-inhibitory concentration (IC50) on DCAF15 of 1 to 10 µM. Also, the EC50 on DCAF15/RBM39 is below 1 µM.

With `CC1(Oc2ccc(S(=O)(=O)Nc3ccc(Cl)c4c(Cl)c[nH]c34)cc2)CCN(CCO)CC1` [Compound 23, N-(3,4-dichloro-1H-indol-7-yl)-4-((1-(2-hydroxyethyl)-4-methylpiperidin-4-yl)oxy)benzenesulfonamide], at DCAF15, the half-inhibitory concentration (IC50) lay in the range of 1 to 10 µM. Further, the EC50 at DCAF15/RBM39 is below 1 µM.

As to `Cc1ccccc1Oc1ccccc1CNC(=O)c1ccc(S(=O)(=O)Nc2ccc(Cl)c3c(Cl)c[nH]c23)c(F)c1` [Compound 173], on DCAF15, the IC50 is above 100 µM. On DCAF15/RBM39, this compound had an EC50 above 100 µM.

Regarding `O=C(N[C@H]1CCc2ccccc21)c1ccc(S(=O)(=O)Nc2ccc(Cl)c3c(Cl)c[nH]c23)c(F)c1` [Compound 155], the half-maximal inhibitory concentration (IC50) at DCAF15 is above 100 µM. On DCAF15/RBM39, this compound returned an EC50 above 100 µM.

`CC1(CCOc2ccc(S(=O)(=O)Nc3ccc(Cl)c4c(Cl)c[nH]c34)cc2)CCNCC1` [Compound 75]: the 50% inhibitory concentration (IC50) at DCAF15 lay within 1 to 10 µM. Further, the EC50 at DCAF15/RBM39 was below 1 µM.

In turn, `NC(=O)c1cc(Cl)cc(S(=O)(=O)Nc2ccc(Cl)c3c(Cl)c[nH]c23)c1` [Compound 235] showed an IC50 at DCAF15 of 1 to 10 µM. The EC50 on DCAF15/RBM39 fell in the range of 1 to 10 µM.

`O=C(NCCOCC1CC1)c1cccc(S(=O)(=O)Nc2ccc(Cl)c3c(Cl)c[nH]c23)c1F` [Compound 186]: the IC50 at DCAF15 was in the range of 1 to 10 µM. Besides, on DCAF15/RBM39, the EC50 is 1 to 10 µM.

Compound `O=S(=O)(Nc1ccc(Cl)c2c(Cl)c[nH]c12)c1cccc(O[C@H]2CC[C@H](OCc3ccccc3)CC2)c1` [Compound 18] returned an IC50 on DCAF15 above 100 µM. The compound further displayed a 50% effective concentration (EC50) at DCAF15/RBM39 above 100 µM.

`O=S(=O)(Nc1ccc(Cl)c2c(Cl)c[nH]c12)c1ccc(OCCCCc2ccccn2)cc1` [Compound 140] displayed an IC50 at DCAF15 of 1 to 10 µM. Also, the 50% effective concentration (EC50) on DCAF15/RBM39 lay within 1 to 10 µM.

Consider `O=C(NCCc1ccccn1)c1ccc(S(=O)(=O)Nc2ccc(Cl)c3c(Cl)c[nH]c23)c(F)c1` [Compound 201], for which the IC50 on DCAF15 was in the range of 1 to 10 µM. Further, the EC50 at DCAF15/RBM39 was below 1 µM.

The compound `O=C(c1cccc(S(=O)(=O)Nc2ccc(Cl)c3c(Cl)c[nH]c23)c1F)N1CCC(Oc2cccnc2)CC1` [Compound 219] displayed a 50% inhibitory concentration (IC50) at DCAF15 below 1 µM. This compound had a concentration for a half-maximal effect (EC50) on DCAF15/RBM39 below 1 µM.

On DCAF15, `O=S(=O)(Nc1ccc(Cl)c2c(Cl)c[nH]c12)c1ccc(Oc2ccccc2)c(Cl)c1` [Compound 34] had an IC50 above 100 µM. The same compound registered a concentration for a half-maximal effect (EC50) at DCAF15/RBM39 of 1 to 10 µM.

At DCAF15, `N[C@@H]1CCC[C@@H](Oc2cccc(S(=O)(=O)Nc3ccc(Cl)c4c(Cl)c[nH]c34)c2)C1` [Compound 6] had an IC50 of 10 to 100 µM. In addition, the EC50 at DCAF15/RBM39 was below 1 µM.

On DCAF15, `O=S(=O)(Nc1ccc(Cl)c2c(Cl)c[nH]c12)c1ccc(O[C@@H]2C[C@@H]3C[C@@H]3C2)cc1` [Compound 21] yielded a 50% inhibitory concentration (IC50) above 100 µM. The EC50 on DCAF15/RBM39 fell in the range of 1 to 10 µM.

Consider `O=S(=O)(Nc1ccc(Cl)c2c(Cl)c[nH]c12)c1ccc(Oc2ccc(F)cc2)c(Br)c1` [Compound 234], for which the IC50 at DCAF15 is above 100 µM. This compound gave a 50% effective concentration (EC50) at DCAF15/RBM39 of 1 to 10 µM.

For `Cc1ccc(CCNC(=O)c2cccc(S(=O)(=O)Nc3ccc(Cl)c4c(Cl)c[nH]c34)c2F)o1` [Compound 198], on DCAF15, the IC50 was in the range of 1 to 10 µM. Moreover, the EC50 on DCAF15/RBM39 lay in the range of 1 to 10 µM.

The compound `O=C(c1cccc(S(=O)(=O)Nc2ccc(Cl)c3c(Cl)c[nH]c23)c1F)N1CCc2[nH]c(-c3ccccc3)nc2C1` [Compound 226] had an IC50 at DCAF15 of 1 to 10 µM. For the same compound, on DCAF15/RBM39, the EC50 was below 1 µM.

For the compound `O=C(NCCCc1ccc(Cl)cc1)c1ccc(S(=O)(=O)Nc2ccc(Cl)c3c(Cl)c[nH]c23)c(F)c1` [Compound 209], the IC50 at DCAF15 is above 100 µM. At DCAF15/RBM39, the EC50 lay in the range of 1 to 10 µM.

For the compound `Cc1ccnc(CNC(=O)c2cccc(S(=O)(=O)Nc3ccc(Cl)c4c(Cl)c[nH]c34)c2F)c1` [Compound 178], the 50% inhibitory concentration (IC50) on DCAF15 is 1 to 10 µM. This compound registered an EC50 on DCAF15/RBM39 of 1 to 10 µM.

`CC[C@H](NC(=O)c1cccc(S(=O)(=O)Nc2ccc(Cl)c3c(Cl)c[nH]c23)c1F)c1ccc2c(c1)OCCO2` [Compound 210] yielded a 50% inhibitory concentration (IC50) at DCAF15 of 1 to 10 µM. On DCAF15/RBM39, this compound had an EC50 of 1 to 10 µM.

`Cc1cc(CNC(=O)c2cccc(S(=O)(=O)Nc3ccc(Cl)c4c(Cl)c[nH]c34)c2F)nn1C` [Compound 174] had a half-maximal inhibitory concentration (IC50) on DCAF15 of 1 to 10 µM. The compound also had a half-maximal effective concentration (EC50) on DCAF15/RBM39 below 1 µM.

For `O=C(NCCCc1ccc(Cl)cc1)c1cccc(S(=O)(=O)Nc2ccc(Cl)c3c(Cl)c[nH]c23)c1F` [Compound 208], the IC50 on DCAF15 is above 100 µM. The same compound returned an EC50 at DCAF15/RBM39 above 100 µM.

The compound `Cc1nc2c(n1C)CCN(C(=O)c1cccc(S(=O)(=O)Nc3ccc(Cl)c4c(Cl)c[nH]c34)c1F)C2` [Compound 228] showed an IC50 on DCAF15 below 1 µM. At DCAF15/RBM39, this compound had a 50% effective concentration (EC50) below 1 µM.

`Cn1cc(CCOc2cccc(S(=O)(=O)Nc3ccc(Cl)c4c(Cl)c[nH]c34)c2)c2ccccc21` [Compound 92] displayed an IC50 on DCAF15 above 100 µM. The compound further showed a 50% effective concentration (EC50) at DCAF15/RBM39 of 10 to 100 µM.

For `Cc1nc(-c2ccc(COc3cccc(S(=O)(=O)Nc4ccc(Cl)c5c(Cl)c[nH]c45)c3)cc2)no1` [Compound 63], on DCAF15, the IC50 is above 100 µM. Moreover, the 50% effective concentration (EC50) on DCAF15/RBM39 lay within 1 to 10 µM.

On DCAF15, `O=C(OCc1ccccc1)N1C[C@@H]2[C@@H](COc3ccc(S(=O)(=O)Nc4ccc(Cl)c5c(Cl)c[nH]c45)cc3)[C@@H]2C1` [Compound 50] registered an IC50 above 100 µM. This compound also yielded an EC50 on DCAF15/RBM39 above 100 µM.

Regarding `CC(C)(C)OC(=O)N1CCC2(CC1)CN(C(=O)c1cccc(S(=O)(=O)Nc3ccc(Cl)c4c(Cl)c[nH]c34)c1F)CCO2` [Compound 224], at DCAF15, the IC50 is 1 to 10 µM. At DCAF15/RBM39, this compound displayed a half-maximal effective concentration (EC50) below 1 µM.

The compound `O=C(OCc1ccccc1)N1C[C@@H]2[C@@H](COc3cccc(S(=O)(=O)Nc4ccc(Cl)c5c(Cl)c[nH]c45)c3)[C@@H]2C1` [Compound 49] showed a 50% inhibitory concentration (IC50) at DCAF15 above 100 µM. At DCAF15/RBM39, this compound registered an EC50 of 1 to 10 µM.

`Cc1ccccc1Oc1ccccc1CNC(=O)c1cccc(S(=O)(=O)Nc2ccc(Cl)c3c(Cl)c[nH]c23)c1F` [Compound 172]: the concentration for half-maximal inhibition (IC50) at DCAF15 lay within 1 to 10 µM. This compound gave a concentration for a half-maximal effect (EC50) on DCAF15/RBM39 of 1 to 10 µM.

`O=S(=O)(Nc1ccc(Cl)c2c(Cl)c[nH]c12)c1ccc(OC[C@H]2[C@@H]3CNC[C@@H]32)cc1` [Compound 48] displayed an IC50 at DCAF15 of 10 to 100 µM. For the same compound, on DCAF15/RBM39, the concentration giving a half-maximal response (EC50) is below 1 µM.

Regarding `COc1cccc(Oc2ccc(CNC(=O)c3cccc(S(=O)(=O)Nc4ccc(Cl)c5c(Cl)c[nH]c45)c3F)cn2)c1` [Compound 181], the IC50 on DCAF15 fell in the range of 1 to 10 µM. This compound registered an EC50 at DCAF15/RBM39 of 1 to 10 µM.

One may read the IC50 as the concentration that gives 50% inhibition. Read a high IC50 as weaker potency in that assay. For orientation: EC50 means the concentration at which the effect is half-maximal. A lower EC50 goes with greater potency.
